Where two headings read alike, the source gives them in different places.
Key:
[1] = test system: hepatocellular carcinoma (HCC) patients; test: Sorafenib treatment of 73 HCC patients: tumor response (mRECIST) and Kaplan-Meier survival; assay type: in vivo, human
Description: This study included 73 histological confirmed HCC patients. […] All tissues were obtained by needle biopsy. The patients were from Ajou Medical Center (AMC). The protocol of this study was approved by the Institutional Review Boards of Ajou Medical Center (AMC).
From a DCR perspective, patients with complete response (CR), partial response (PR) and stable disease (SD) were considered as responders whereas those with progressive disease (PD) were judged as non-responders.
Relationship between treatment response and clinicopathologic variables was evaluated using Chi square tests or Fishers exact tests. Gene expression data were tested for normality with the Shapiro-Wilk test. […] Receiver operating characteristic (ROC) curve analysis was used to determine accuracy of threshold values classifying tumor responders and non-responders using gene signature. Kaplan-Meier survival (KM) curves were calculated using death as end point in overall survival (OS) and using death and progression disease as end point in progression free survival (PFS). The difference in KM curves was examined by log-rank test and the difference in hazard ratio was examined by Cox regression analysis. […] Significance was set at P<0.05 (two-tailed). All statistics were performed in R version 3.3.3 (R Development Core Team, https:/www.r-project.org/).

[2] = test system: hepatocellular carcinoma (HCC) patients; conditions: systemic first-line therapy without predictive biomarkers; cited from earlier work
[3] = entire patients treated with sorafenib
[4] = predicted good responders (8-gene signature)
[5] = predicted poor responders (8-gene signature)

**Q.** Which results are given for `CNC(=O)c1cc(Oc2ccc(NC(=O)Nc3ccc(Cl)c(C(F)(F)F)c3)cc2)ccn1` [sorafenib]?
**A.** Median overall survival [1, 3]: 11.3 months; Median progression-free survival [1, 3]: 2.9 months; Median time to progression [1, 3]: 2.9 months; disease control rate ([1]; entire patients, before selection with the 8-gene signature): 28.77%; Tumor response: Progressive disease, number of patients ([1]; non-responders (n = 52)): 52; Tumor response: Progressive disease, share of group ([1]; non-responders (n = 52)): 100.0%; number of non-responders (PD) ([1]; of 73 patients treated with sorafenib): 52; disease control rate ([1]; patients selected with the 8-gene signature): 85.71%; Median progression-free survival [1, 4]: 5.8 months; Median time to progression [1, 4]: 5.8 months; Median overall survival [1, 5]: 6.7 months; Median progression-free survival [1, 5]: 2.8 months; Median time to progression [1, 5]: 2.8 months; Tumor response: Complete response, number of patients ([1]; responders (n = 21)): 2; Tumor response: Complete response, share of group ([1]; responders (n = 21)): 9.5%; Tumor response: Partial response, number of patients ([1]; responders (n = 21)): 9; Tumor response: Partial response, share of group ([1]; responders (n = 21)): 42.9%; Tumor response: Stable disease, number of patients ([1]; responders (n = 21)): 10; Tumor response: Stable disease, share of group ([1]; responders (n = 21)): 47.6%; Median overall survival [2]: 10.7 months; objective response rates [2]: 2%
